Assay: Twenty-four hour aqueous solubility at 25° C.
Type: physicochemical
Conditions: thermodynamic from solid, crystalline
Experimental: Twenty-four Hour Aqueous Solubility of Crystalline GLP1RA-Ca at 25° C.
Twenty-Four Hour Aqueous Solubility of Preparation 3 SDD at 25° C.

Work on `Cc1cc(-n2nc3c(c2-n2ccn(-c4ccc5c(cnn5C)c4F)c2=O)[C@H](C)N(C(=O)c2cc4cc([C@H]5CCOC(C)(C)C5)ccc4n2[C@@]2(c4noc(=O)[nH]4)C[C@@H]2C)CC3)cc(C)c1F` [GLP1RA-Ca, 3-[(1S,2S)-1-[5-[(4S)-2,2-dimethyloxan-4-yl]-2-[(4S)-2-(4-fluoro-3,5-dimethylphenyl)-3-[3-(4-fluoro-1-methylindazol-5-yl)-2-oxoimidazol-1-yl]-4-methyl-6,7-dihydro-4H-pyrazolo[4,3-c]pyridine-5-carbonyl]indol-1-yl]-2-methylcyclopropyl]-4H-1,2,4-oxadiazol-5-one, 0.5 Ca hydrate] yielded a solubility at 24 h (aqueous buffer, pH 4.5 acetate buffer (USP), media pH 4.5) of less than 1 µg/mL, a solubility at 24 h (aqueous buffer, pH 6.0 phosphate buffer (USP), media pH 5.99) of less than 1 µg/mL and a solubility at 24 h (aqueous buffer, pH 7.5 phosphate buffer (USP), media pH 7.44) of 3 µg/mL. It also gave a solubility at 24 h (fassif, Fasted state simulated intestinal fluid, media pH 6.49) of 2 µg/mL, a solubility at 24 h (fessif, Fed state simulated intestinal fluid, media pH 4.93) of 13 µg/mL and a solubility at 24 h (simulated gastric fluid, 0.01N HCl, media pH 1.98) of less than 1 µg/mL. The solubility at 24 h (simulated gastric fluid, 0.1N HCl, media pH 1.01) was less than 1 µg/mL, the solubility at 24 h (Simulated gastric fluid, media pH 1.97) was 3 µg/mL and the solubility at 24 h (Water, media pH not measured) was 28 µg/mL.

Source: patent US20250325525A1, “GLP1 TABLET COMPOSITIONS” (Eli Lilly and Company, priority 2022, published 2025)
